The values that follow come from patent publication US7638600B2 (priority 2004, dated 2009).

The subject of one assay is spores. The assay is classed as cell-based.
A further assay relates to RSVF1/pDG148. The assay is described as follows: microbe, parasite or virus in culture. The assay is classed as cell-based, B. cereus. The following applies: Bacillus cereus, read-out: MIC for fosfomycin.
The test system of the next assay is RSVF1. As to the kind of experiment: microbe, parasite or virus in culture. The following applies: Bacillus cereus, read-out: MIC for fosfomycin. Format: cell-based, B. cereus.
In the next assay the test system is RSVF1/pDG148::gp41. As to the kind of experiment: microbe, parasite or virus in culture. Format: cell-based, B. cereus.

≈ marks a conversion by molar mass, not a printed value.

`C[C@@H](N)C(=O)O` [D-alanine] had a germination frequency in the assay with spores of less than 10%.
Regarding `C[C@H](N)C(=O)O` [L-alanine], the “spores converted to heat sensitive forms” value in the assay with spores is listed as greater than 99%.
In the case of `C[C@@H]1O[C@@H]1P(=O)(O)O` [fosfomycin], the MIC in the assay on RSVF1/pDG148 is 62.5 µg/mL (≈ 453 µM); in the assay with RSVF1, 62.5 µg/mL (≈ 453 µM); in the assay on RSVF1/pDG148::gp41 (Bacillus cereus, read-out: MIC for fosfomycin), 500 µg/mL (≈ 3620 µM). Moreover, in the assay with RSVF1/pDG148::gp41, the “increase in resistance to the antibiotic fosfomycin” value was found to be 4 log.
